Measured values published in patent US20150374784A1, “COMPOSITIONS AND METHODS FOR REDUCING GERM CELL DEATH” (Los Angeles Biomedical Research Institute at Harbor-UCLA …, priority 2014, published 2015).
Peptide text beside a SMILES is read from it.

Key:
Leydig cells = test: Testosterone of cultured Leydig cells treated with ketoconazole; type: cell-based, rat; conditions: KTZ 10 mcg/ml, 4 hours, 34° C.
Method: Leydig cells were isolated based on a previously described procedure (Gao, et al., 1996; Klinefelter, et al., 1987; Salva, et al., 2001). Briefly, the testes were decapsulated, and then dissociated with collagenase, dispase, DNase and shaking for 15 min at 34° C. The seminiferous tubules were removed by filtration through 40 μm nylon mesh (BD Falcon, Franklin Lakes, N.J.). Leydig cells were then harvested after centrifugation and purified using a Percoll gradient (GE Healthcare, Uppsala, Sweden) and centrifugation (60 minutes at 20,000 g at 4° C.). Enriched Leydig cells were harvested at densities between 1.065 (red) and 1.075 (blue) g/cm^3 from the percoll gradient. These Leydig cells were washed by diluting the percoll and excluding residual germ cells and other cells using a BSA density gradient with centrifugation. The purity of the Leydig cells was >90%, as determined by histochemical staining for 3β-hydroxysteroid dehydrogenase. The cell viability, as assessed by trypan blue exclusion, was greater than 90%. […]
Testosterone concentrations in plasma, testes, and culture medium were measured by a previously described radioimmunoassay (Lue, et al., 2010) with a minimal detection limit of 0.1 ng/ml. […]

in vivo = conditions: male, C57BL/6J, mouse, sc, 10 mg/kg BW
Method: The objective of this study was to investigate whether HNG has protective effect on sperm output after multiple doses of CP in mice. Thirty adult male mice (C57BL/6J) were randomized into 4 groups: 1) 5 as control; 2) 5 received daily subcutaneously injection of HNG (10 mg/kg BW); 3) 10 were given 6 doses of CP (150 mg/kg BW) intraperitoneally at 5-day intervals; 4) 10 received both HNG and CP. All mice were killed at 28 days. Plasma HNG and IGF-1 levels were measured by ELISAs. The cauda epididymal sperm count was performed using a hemocytometer.

B16 melanoma cells = type: cell-based
Description: Furthermore, the autophagy induction of humanin may be related to its apparent effects of enhancing longevity observed in other systems.

male germ cells = test: TMZ-induced male germ cell apoptosis in SCID mice (TUNEL, Apoptosis Index); type: in vivo, mouse; conditions: 24 hours after last injection; TMZ 50 mg/Kg BW/day X 5 days; HNG 5 mg/Kg BW/day
Method: Onco-infertility is a major concern of cancer survivors. In this study, it was investigated whether HNG will prevent chemotherapy (Temozolomide, TMZ, an alkylating agent used clinically to treat brain tumors) induced male germ cell apoptosis in SCID mice bearing subcutaneous implants of human medulloblastoma. DAOY human pediatric medulloblastoma cells ([…] cells/animal) were injected subcutaneously into the right flank of 7-week old male SCID mice. After 3 weeks to allow tumor growth, each group of mice (n=4 to 5/group) received one of the following treatments: 1) vehicle (control); 2) HNG intra-peritoneal (IP) injection (HNG, 5 mg/Kg BW/day, 3 days pretreatment+5 days treatment); 3) TMZ IP injection (TMZ, 50 mg/Kg BW/day X 5 days); 4) TMZ and HNG IP injections (TMZ+HNG). Mice were sacrificed 24 hours after the last injection, subcutaneous tumors were dissected and weighed (FIG. 26) and male germ cell apoptosis was assessed by TUNEL staining and quantified (Apoptosis Index, AI, number of apoptotic germ cell/Sertoli cell, FIG. 27). […] HNG ameliorated TMZ-induced germ cell apoptosis without affecting the chemotherapeutic effect on transplanted medulloblastoma tumor in an immunocompromised mouse model.

CC(=O)N1CCN(c2ccc(OCC3COC(Cn4ccnc4)(c4ccc(Cl)cc4Cl)O3)cc2)CC1 (centres unmarked) [KTZ, ketoconazole, reference compound]
testosterone levels of cultured Leydig cells (Leydig cells): lowered the testosterone levels significantly

CC[C@H](C)[C@H](NC(=O)[C@H](CCC(=O)O)NC(=O)CNC(=O)[C@@H](NC(=O)[C@H](CC(C)C)NC(=O)[C@H](CC(C)C)NC(=O)[C@H](CC(C)C)NC(=O)[C@H](CC(C)C)NC(=O)[C@H](CS)NC(=O)[C@H](CO)NC(=O)[C@H](Cc1ccccc1)NC(=O)CNC(=O)[C@H](CCCNC(=N)N)NC(=O)[C@@H]1CCCN1C(=O)[C@H](C)NC(=O)[C@@H](N)CCSC)[C@@H](C)O)C(=O)N[C@@H](CC(=O)O)C(=O)N[C@@H](CC(C)C)C(=O)N1CCC[C@H]1C(=O)N[C@H](C(=O)N[C@@H](CCCCN)C(=O)N[C@@H](CCCNC(=N)N)C(=O)N[C@@H](CCCNC(=N)N)C(=O)N[C@@H](C)C(=O)O)C(C)C [HNG] (H-MAPRGFSCLLLLTGEIDLPVKRRA-OH; N-terminus and C-terminus assumed)
level at 672 h (in vivo): 80.8 ± 7.8 ng/mL
cytotoxicity of combined treatment versus doxorubicin treatment alone (B16 melanoma cells): additive effect on the cytotoxicity

Cn1nnc2c(C(N)=O)ncn2c1=O [TMZ, Temozolomide]
Apoptosis Index (AI), apoptotic germ cell/Sertoli cell, early+late stages (male germ cells): 0.116±0.009
Apoptosis Index (AI), apoptotic germ cell/Sertoli cell, middle stages (male germ cells): 0.058±0.006
